Laboratory results: BindingDB's records for doi:10.1021/acs.jmedchem.8b00408 (Duquesne University, 2018)

Experiments:
[1] = Binding affinity to human RFC2 expressed in human HeLa R1-11 cells assessed as antiproliferative activity measured as reduction in cell growth after 96 hrs by Cell-Titer Blue assay
[2] = Binding affinity to human PCFT expressed in Chinese hamster R2/PCFT4 cells assessed as antiproliferative activity measured as reduction in cell growth after 96 hrs by Cell-Titer Blue assay
[3] = target: Folate receptor alpha (Homo sapiens) (UniProt P15328); experiment: Binding affinity to human FRalpha expressed in human HeLa R1-11-FR2 cells assessed as antiproliferative activity measured as reduction in cell growth after 96 hrs by Cell-Titer Blue assay
Chain of Folate receptor alpha (Homo sapiens) (P15328 whole entry, looked up): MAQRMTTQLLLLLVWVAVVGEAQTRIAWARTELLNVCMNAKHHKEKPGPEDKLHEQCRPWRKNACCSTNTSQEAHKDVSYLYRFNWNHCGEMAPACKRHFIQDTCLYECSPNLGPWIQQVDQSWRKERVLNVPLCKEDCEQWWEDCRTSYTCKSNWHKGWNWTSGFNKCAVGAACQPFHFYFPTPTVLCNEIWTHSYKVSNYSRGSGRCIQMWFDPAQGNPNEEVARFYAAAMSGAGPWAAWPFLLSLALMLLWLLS

[4] = Binding affinity to human FRbeta expressed in Chinese hamster D4 cells assessed as antiproliferative activity measured as reduction in cell growth after 96 hrs by Cell-Titer Blue assay
[5] = Binding affinity to human FRalpha expressed in Chinese hamster RT16 cells assessed as antiproliferative activity measured as reduction in cell growth after 96 hrs by Cell-Titer Blue assay
[6] = Binding affinity to human RFC expressed in Chinese hamster PC43-10 cells assessed as antiproliferative activity measured as reduction in cell growth after 96 hrs by Cell-Titer Blue assay
[7] = Binding affinity to human PCFT4 expressed in human HeLa R1-11 cells assessed as antiproliferative activity measured as reduction in cell growth after 96 hrs by Cell-Titer Blue assay

Row | SMILES | IC50 [2] [nM] | IC50 [3] [nM] | IC50 [4] [nM] | IC50 [5] [nM] | IC50 [1] [nM] | IC50 [6] [nM] | IC50 [7] [nM]
1 | Nc1nc2[nH]c(CCCCc3csc(C(=O)N[C@@H](CCC(=O)O)C(=O)O)c3)cc2c(=O)[nH]1 | – | – | – | – | > 1000 | > 1000 | 73
2 | Nc1nc2[nH]c(CCCCc3ccc(C(=O)N[C@@H](CCC(=O)O)C(=O)O)cc3)cc2c(=O)[nH]1 [N-{4-[4-(2-Amino-4-oxo-4,7-dihydro-3H-pyrrolo[2,3-d]pyrimidin-6-yl)butyl]benzoyl}-L-glutamic Acid] | – | – | – | – | > 1000 | > 1000 | –
3 | Nc1nc2[nH]c(CCCc3csc(C(=O)N[C@@H](CCC(=O)O)C(=O)O)c3)cc2c(=O)[nH]1 | – | – | – | – | 63 | – | 40
4 | Nc1nc2[nH]c(CCCc3ccc(C(=O)N[C@@H](CCC(=O)O)C(=O)O)cc3)cc2c(=O)[nH]1 [(S)-2-(4-(3-(2-amino-4-oxo-4,7-dihydro-3H-pyrrolo[2,3-d]pyrimidin-6-yl)propyl)benzamido)pentanedioic acid] | – | – | – | – | > 1000 | 304 | 9.7
5 | Nc1nc2[nH]c(CCCc3ccc(C(=O)N[C@@H](CCC(=O)O)C(=O)O)s3)cc2c(=O)[nH]1 | – | – | – | – | 444 | 106 | –
6 | Nc1nc2[nH]c(CCCCc3ccc(C(=O)N[C@@H](CCC(=O)O)C(=O)O)nc3)cc2c(=O)[nH]1 | – | – | – | – | 634 | > 1000 | 9

Continued, in another order:

Row | IC50 [2] [nM] | IC50 [3] [nM] | IC50 [4] [nM] | IC50 [5] [nM] | SMILES | IC50 [1] [nM] | IC50 [6] [nM] | IC50 [7] [nM]
7 | 1.5 | 3.1 | 0.19 | 0.14 | Nc1nc2[nH]c(CCCc3csc(C(=O)N[C@@H](CCC(=O)O)C(=O)O)c3F)cc2c(=O)[nH]1 | 66 | – | –
8 | 207 | – | 0.93 | 1.4 | Nc1nc2[nH]c(CCCCc3ccc(C(=O)N[C@@H](CCC(=O)O)C(=O)O)cc3F)cc2c(=O)[nH]1 | – | – | –
9 | 6 | – | – | – | Nc1nc2[nH]c(CCCCc3csc(C(=O)N[C@@H](CCC(=O)O)C(=O)O)c3F)cc2c(=O)[nH]1 | 213 | > 1000 | 5
10 | 3.8 | 5.2 | 3.9 | – | Nc1nc2[nH]c(CCCc3ccc(C(=O)N[C@@H](CCC(=O)O)C(=O)O)c(F)c3)cc2c(=O)[nH]1 | 507 | 62 | 5.5
